# Columns and labels:
# [1] = test system: MM.1S cells; assay: Intracellular ROS by DCFDA flow cytometry; format: cell-based, human; details: MM.1S cells pretreated with DCFDA 30 minutes; lenalidomide 10 μM vs vehicle
# Procedure: Post-treatment reactive oxygen species (ROS) levels were determined using the cell-permeable fluorogenic probe DCFDA (Invitrogen Biosciences). Briefly, million cells per 2 mL (2 million cells in 4 mL medium) were cultured overnight. DCFDA (50 μM) was added to suspended cells and incubated for 30 minutes in the dark. Cells were collected and washed once with phosphate-buffered saline (PBS) and split into 2 FACS tubes. […] Cells were analyzed using a FACSCalibur system (Becton and Dickinson), with excitation and emission spectra set at 488 and 530 nm, respectively. CellQuest software was used to calculate H2O2 production by measuring the increase in mean fluorescence.
# [2] = biological target: T1, Horseradish peroxidase (Armoracia rusticana, UniProt P00433); assay: HRP/Amplex Red in-vitro assay; format: biochemical; details: 10 μM drug, 5 μM H2O2, 30 minutes
# T1 sequence (P00433 31-338 limits assumed): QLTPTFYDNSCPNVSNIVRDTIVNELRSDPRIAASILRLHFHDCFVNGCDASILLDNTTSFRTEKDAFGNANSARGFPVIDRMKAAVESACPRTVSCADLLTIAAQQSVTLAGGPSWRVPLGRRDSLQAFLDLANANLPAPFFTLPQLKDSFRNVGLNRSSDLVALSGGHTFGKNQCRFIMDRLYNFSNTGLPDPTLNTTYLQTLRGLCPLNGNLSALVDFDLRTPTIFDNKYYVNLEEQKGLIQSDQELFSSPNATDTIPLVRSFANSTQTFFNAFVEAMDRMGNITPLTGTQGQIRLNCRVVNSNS
# Procedure: (§1) After 30 minutes, plates were read for fluorescence at 530 nm excitation and 590 nm emission with plate reader (Biotek Cytation3). For determining intra-cellular peroxidase activity by Amplex Red, cells were washed and mixed with Amplex Red reagent (50 μM) in HBSS buffer and plated 100,000 cells per well into 96 well plate, four wells for each condition. […] The DMSO control included H2O2 (100 μM). […] After specific time periods, the plates were read for fluorescence intensity using plate reader.
# [3] = test system: intracellular peroxidases in HMCLs; assay: Intra-cellular peroxidase activity by Amplex Red in HMCLs; format: cell-based, human; details: different myeloma cell lines; thalidomide 20 μM, lenalidomide 20 μM, pomalidomide 10 μM; 40 to 60 minutes
# Procedure: as §1
# [4] = test system: OPM2-NT and OPM2-shCRBN cells; assay: MTT assay in OPM2-NT and OPM2-shCRBN cells; format: cell-based, human; details: OPM2-NT vs OPM2-shCRBN, increasing concentrations, 3 days
# Source text: (§2) The data were normalized to the DMSO-treated group.
# [5] = test system: MM.1S cells; assay: MTT assay in MM.1S cells; format: cell-based, human; details: 3 days
# Source text: as §2
# [6] = test system: RPMI-8226 cells; assay: MTT assay in RPMI-8226 cells; format: cell-based, human; details: RPMI-8226, 3 days
# Source text: as §2
# [7] = test system: JJN3 cells; assay: MTT assay in JJN3 cells; format: cell-based, human; details: JJN3, 3 days
# Source text: as §2
# [8] = test system: KMS11 cells; assay: MTT assay in KMS11 cells; format: cell-based, human; details: KMS11, 3 days
# Source text: as §2
# [9] = test system: MM.1Sres cells; assay: MTT assay in MM.1Sres cells; format: cell-based, human
# Source text: as §2
# [10] = test system: IgL-λ dimers; assay: IgL dimerization immunoblot under nonreducing conditions in MM.1S cells; format: cell-based, human; details: 3 hours, lenalidomide 10 μM or H2O2 25 μM
# Source text: (§3) Proteins were transferred to polyvinylidene fluoride membranes (Bio-Rad).
# [11] = test system: IgL-λ dimers; assay: IgL dimerization immunoblot in MM.1S and MM.1Sres cells; format: cell-based, human; details: MM.1S and MM.1Sres treated for 3 days
# Source text: as §3
# [12] = test system: IgL-λ; assay: IgL-λ secretion and intracellular level (immunoblot, ELISA) in OPM2-NT and OPM2-shCRBN cells; format: cell-based, human
# Source text: as §3
# [13] = test system: IgL-λ mRNA; assay: Real-time PCR for IgL-λ mRNA; format: cell-based, human; details: FIG. 8B; 10, 30, or 50 μM, 72 hours
# Procedure: (§4) Total RNA from HMCLs treated with lenalidomide was isolated using the Qiagen RNeasy mini kit. RNA (1 μg) was used for cDNA synthesis using iScript Reverse Transcription Supermix (Bio-Rad). Real-time polymerase chain reaction (PCR) was performed using the SYBR green method. The following primers were used for amplification: […]
# (§5) The fold change of the mRNA expression was calculated from the difference between treated and untreated cells, after normalizing to an endogenous control (β-actin). Primers encompassing the spliced sequences in XBP1 mRNA were used for PCR amplification, and products were separated by electrophoresis through a 2.5% agarose gel and visualized by ethidium bromide staining. All reactions were conducted in triplicate.
# [14] = test system: ER stress markers in OPM2-NT and OPM2-shCRBN cells; assay: ER stress immunoblot in OPM2-NT and OPM2-shCRBN cells; format: cell-based, human
# Source text: as §3
# [15] = test system: XBP-1 mRNA; assay: XBP-1 mRNA splicing by PCR; format: cell-based, human; details: lenalidomide 10 μM, 3 days
# Procedure: as §4, §5
# [16] = test system: Bip; assay: Bip immunoblot in other isogenic HMCLs (MM.1S/MM.1Sres, KMS18-NT/KMS18-shCRBN); format: cell-based, human; details: CRBN-positive vs CRBN-negative cells, 3 days
# Source text: as §3
structure (smiles),measurement,setting,value
Nc1cccc2c1CN(C1CCC(=O)NC1=O)C2=O (stereo not drawn) [lenalidomide],intracellular H2O2 (DCF fluorescence by FACS),[1],increasing intracellular H2O2
same,decomposition of H2O2 by horseradish peroxidase (Amplex Red to resorufin),[2],inhibited
same,intracellular H2O2 decomposition mediated by peroxidases,[3],inhibit intracellular H2O2 decomposition
same,CRBN dependence of cytotoxicity (MTT),[4],CRBN dependent
same,sensitivity of cell line (MTT),[5],hypersensitive
same,sensitivity of cell line (MTT),[6],resistant
same,sensitivity of cell line (MTT),[7],resistant
same,sensitivity of cell line (MTT),[8],sensitive
same,sensitivity of cell line (MTT),[9],resistant
same,formation of IgL-λ dimers,[10],increased formation of IgL-λ dimers
same,IgL-λ dimers,[11],IgL-λ dimers were observed only in MM.1S
same,total intracellular IgL protein,"[12]; FIG. 8C, 72 hours",increased total intracellular IgL protein
same,secretion of IgG-λ / IgL-λ,[12]; FIG. 8D-E,decreased secretion
same,IgL-λ mRNA expression,[13],unchanged
same,ER stress response,"[14]; 3 days, increasing concentrations (10, 30, or 50 μM)","an ER stress response occurred in OPM2-NT cells, but not in CRBN-knockdown cells"
same,GRP78/BiP protein,"[14]; CRBN-positive cells, 3 days",accumulated
same,IRE1α protein level,"[14]; CRBN-positive cells, 3 days",markedly decreased
same,p53 protein levels,"[14]; CRBN-positive cells, 3 days",decreased
same,p53 and PARP levels,"[14]; CRBN-positive lenalidomide-sensitive cells, 6 days",complete degradation of p53 and PARP proteins
same,mRNA splicing of XBP-1,[15],more evident in OPM2-NT cells than CRBN-knockdown cells
same,Bip protein,[16],"accumulation of Bip protein in CRBN-positive cells, but not in CRBN-negative cells"
